Data on 8 compounds can be found in ChEMBL document CHEMBL4325925, “Privileged Structures and Polypharmacology within and between Protein Families” (ACS Med Chem Lett, 2018).

In one experiment the target is T1, Pirin (Homo sapiens, UniProt O00625).
T1 sequence (O00625 whole entry): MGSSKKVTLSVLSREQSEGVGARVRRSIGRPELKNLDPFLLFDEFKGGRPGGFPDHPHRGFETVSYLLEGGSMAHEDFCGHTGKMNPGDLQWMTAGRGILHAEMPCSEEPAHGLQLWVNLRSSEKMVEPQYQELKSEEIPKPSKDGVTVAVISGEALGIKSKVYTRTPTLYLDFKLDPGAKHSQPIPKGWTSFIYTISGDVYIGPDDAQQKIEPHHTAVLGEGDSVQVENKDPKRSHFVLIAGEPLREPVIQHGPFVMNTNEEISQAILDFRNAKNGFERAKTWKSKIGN
The experiment can be described thus: Displacement of 6-amino-9-(2-((4-((2-((6-((5-(2,3-dihydrobenzo[b][1,4]dioxine-6-carboxamido)-2-methylphenyl)carbamoyl)quinolin-2-yl)oxy)ethyl)amino)-4-oxobutyl)(methyl)carbamoyl)phenyl)-3-imino-3H-xanthene-4,5-disulfonic acid from pirin (unknown origin) by fluorescence polarization assay. (In general: In fluorescence polarisation assays a small probe gives low polarisation when free and higher when bound to something large.)

Experiment [1] has as its target Serine/threonine-protein kinase B-raf (Homo sapiens, UniProt P15056, V600E). The experiment in a line: Inhibition of recombinant human GST-tagged BRAF V600E mutant expressed in baculovirus expression system.
The target in experiment [2] is Serine/threonine-protein kinase B-raf (Homo sapiens, UniProt P15056). The experiment can be described thus: Inhibition of recombinant human full length GST-tagged BRAF expressed in baculovirus expression system.
Sequence of Serine/threonine-protein kinase B-raf (Homo sapiens, UniProt P15056) (P15056 whole entry): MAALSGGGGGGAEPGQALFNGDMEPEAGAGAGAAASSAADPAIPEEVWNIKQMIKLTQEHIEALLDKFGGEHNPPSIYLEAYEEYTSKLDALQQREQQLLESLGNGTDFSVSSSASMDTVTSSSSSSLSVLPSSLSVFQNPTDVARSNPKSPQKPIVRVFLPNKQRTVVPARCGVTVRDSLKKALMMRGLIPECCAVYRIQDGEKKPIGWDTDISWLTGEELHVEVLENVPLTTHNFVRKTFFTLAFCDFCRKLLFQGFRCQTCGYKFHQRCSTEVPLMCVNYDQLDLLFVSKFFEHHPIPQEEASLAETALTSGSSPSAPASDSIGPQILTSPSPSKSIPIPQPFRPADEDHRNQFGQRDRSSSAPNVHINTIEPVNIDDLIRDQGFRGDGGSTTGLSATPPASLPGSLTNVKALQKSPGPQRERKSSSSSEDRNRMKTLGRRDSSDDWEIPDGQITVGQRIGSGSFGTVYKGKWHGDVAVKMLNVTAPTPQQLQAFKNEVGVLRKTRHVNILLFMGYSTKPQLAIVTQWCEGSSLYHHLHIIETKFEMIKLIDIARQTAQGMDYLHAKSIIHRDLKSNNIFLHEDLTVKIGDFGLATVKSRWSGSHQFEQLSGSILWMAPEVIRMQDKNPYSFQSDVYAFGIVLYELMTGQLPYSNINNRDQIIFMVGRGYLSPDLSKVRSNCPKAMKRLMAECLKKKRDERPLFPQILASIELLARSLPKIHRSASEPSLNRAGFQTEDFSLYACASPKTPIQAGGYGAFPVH
Experiment [3] has as its target T2, Serine/threonine-protein kinase TAO1 (Homo sapiens, UniProt Q7L7X3).
T2 sequence (Q7L7X3 whole entry): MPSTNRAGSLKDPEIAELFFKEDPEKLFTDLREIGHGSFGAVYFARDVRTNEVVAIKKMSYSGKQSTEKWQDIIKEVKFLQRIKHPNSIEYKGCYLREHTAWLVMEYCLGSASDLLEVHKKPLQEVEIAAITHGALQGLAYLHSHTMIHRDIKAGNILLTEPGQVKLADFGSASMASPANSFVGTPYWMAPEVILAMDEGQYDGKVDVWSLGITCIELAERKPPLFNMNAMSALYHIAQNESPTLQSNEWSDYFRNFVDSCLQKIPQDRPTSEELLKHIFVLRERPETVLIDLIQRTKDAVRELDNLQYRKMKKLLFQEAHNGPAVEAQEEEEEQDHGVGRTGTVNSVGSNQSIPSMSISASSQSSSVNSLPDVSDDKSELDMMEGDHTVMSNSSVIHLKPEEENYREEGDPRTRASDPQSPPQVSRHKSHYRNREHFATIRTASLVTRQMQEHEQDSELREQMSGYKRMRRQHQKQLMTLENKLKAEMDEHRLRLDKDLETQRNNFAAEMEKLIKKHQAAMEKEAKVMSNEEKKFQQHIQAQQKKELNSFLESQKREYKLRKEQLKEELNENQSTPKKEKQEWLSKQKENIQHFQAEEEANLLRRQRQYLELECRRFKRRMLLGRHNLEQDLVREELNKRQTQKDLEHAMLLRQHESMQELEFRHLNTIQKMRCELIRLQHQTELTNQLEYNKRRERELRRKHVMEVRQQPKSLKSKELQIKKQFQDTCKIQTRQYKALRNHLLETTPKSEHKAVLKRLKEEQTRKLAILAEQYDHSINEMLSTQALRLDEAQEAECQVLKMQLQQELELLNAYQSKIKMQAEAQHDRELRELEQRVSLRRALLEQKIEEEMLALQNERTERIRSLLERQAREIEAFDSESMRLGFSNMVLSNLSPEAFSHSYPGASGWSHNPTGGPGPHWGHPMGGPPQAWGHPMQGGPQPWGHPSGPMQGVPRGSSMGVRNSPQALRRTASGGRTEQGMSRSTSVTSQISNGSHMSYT
The experiment can be described thus: Inhibition recombinant human TAOK1 (1 to 356 residues) after 5 mins in presence of [33P] ATP by Topcount method.

The target in experiment [4] is Homeodomain-interacting protein kinase 2 (Homo sapiens, UniProt Q9H2X6). The experiment in a line: Inhibition recombinant human HIPK2 (165 to 564 residues) after 5 mins in presence of [33P] ATP by Topcount method.
Sequence of Homeodomain-interacting protein kinase 2 (Q9H2X6 whole entry, the tested form may be a part): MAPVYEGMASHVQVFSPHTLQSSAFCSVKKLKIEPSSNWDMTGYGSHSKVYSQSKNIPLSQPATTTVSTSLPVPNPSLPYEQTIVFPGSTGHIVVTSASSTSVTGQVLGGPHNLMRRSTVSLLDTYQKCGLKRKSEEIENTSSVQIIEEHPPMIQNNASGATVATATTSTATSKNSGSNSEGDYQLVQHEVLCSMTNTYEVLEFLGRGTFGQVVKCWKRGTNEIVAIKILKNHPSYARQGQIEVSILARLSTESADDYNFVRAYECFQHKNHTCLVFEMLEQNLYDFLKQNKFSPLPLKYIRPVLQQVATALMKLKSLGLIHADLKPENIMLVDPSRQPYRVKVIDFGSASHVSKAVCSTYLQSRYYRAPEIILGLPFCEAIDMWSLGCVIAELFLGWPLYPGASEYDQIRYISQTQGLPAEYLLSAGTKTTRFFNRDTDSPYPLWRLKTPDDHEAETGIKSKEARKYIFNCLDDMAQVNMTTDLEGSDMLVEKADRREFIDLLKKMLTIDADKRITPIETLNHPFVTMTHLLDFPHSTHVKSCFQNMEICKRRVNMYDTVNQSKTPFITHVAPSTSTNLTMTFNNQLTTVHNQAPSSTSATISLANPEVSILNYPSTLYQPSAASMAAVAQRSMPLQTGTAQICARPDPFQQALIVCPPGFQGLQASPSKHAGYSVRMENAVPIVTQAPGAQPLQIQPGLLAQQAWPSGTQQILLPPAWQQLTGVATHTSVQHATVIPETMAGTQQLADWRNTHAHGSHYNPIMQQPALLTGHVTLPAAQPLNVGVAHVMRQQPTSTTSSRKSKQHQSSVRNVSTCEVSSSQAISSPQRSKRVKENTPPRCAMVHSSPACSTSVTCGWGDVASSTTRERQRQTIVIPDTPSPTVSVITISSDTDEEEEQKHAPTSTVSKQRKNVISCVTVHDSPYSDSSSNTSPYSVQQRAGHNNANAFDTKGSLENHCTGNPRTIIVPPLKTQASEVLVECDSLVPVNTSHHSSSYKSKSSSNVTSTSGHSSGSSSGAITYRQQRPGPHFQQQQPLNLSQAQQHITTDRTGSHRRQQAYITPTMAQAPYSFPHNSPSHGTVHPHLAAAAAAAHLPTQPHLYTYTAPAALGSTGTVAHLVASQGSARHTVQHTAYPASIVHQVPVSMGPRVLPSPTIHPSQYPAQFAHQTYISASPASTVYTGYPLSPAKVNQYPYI

Some results are limits rather than exact numbers.

Broadly, the IC50 is the concentration that inhibits the measured activity by half.

Sequence of Serine/threonine-protein kinase B-raf (Homo sapiens, UniProt P15056, V600E) (P15056 2-766 V600E limits assumed): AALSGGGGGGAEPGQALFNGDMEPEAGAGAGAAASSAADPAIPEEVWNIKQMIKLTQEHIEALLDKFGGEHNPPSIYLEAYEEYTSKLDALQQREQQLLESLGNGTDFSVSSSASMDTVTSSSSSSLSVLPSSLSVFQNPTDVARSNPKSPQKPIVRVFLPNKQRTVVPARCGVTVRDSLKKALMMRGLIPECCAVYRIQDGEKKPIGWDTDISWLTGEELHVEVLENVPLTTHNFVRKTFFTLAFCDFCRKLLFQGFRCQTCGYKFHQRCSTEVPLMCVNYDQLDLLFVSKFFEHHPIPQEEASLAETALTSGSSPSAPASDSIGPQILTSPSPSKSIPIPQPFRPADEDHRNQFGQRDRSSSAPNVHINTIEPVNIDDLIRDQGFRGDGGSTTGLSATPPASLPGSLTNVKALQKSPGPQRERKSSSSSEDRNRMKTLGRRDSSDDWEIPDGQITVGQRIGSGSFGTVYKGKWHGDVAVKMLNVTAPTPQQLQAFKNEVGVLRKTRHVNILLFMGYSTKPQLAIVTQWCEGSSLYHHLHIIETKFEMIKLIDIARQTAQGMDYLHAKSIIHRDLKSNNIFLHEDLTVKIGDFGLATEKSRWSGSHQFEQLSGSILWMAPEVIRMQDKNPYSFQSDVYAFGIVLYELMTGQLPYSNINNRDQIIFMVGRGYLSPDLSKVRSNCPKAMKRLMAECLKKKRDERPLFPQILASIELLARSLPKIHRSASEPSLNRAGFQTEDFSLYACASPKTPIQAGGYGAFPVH

On Pirin, `Cc1ccc(NC(=O)c2cccc(C(C)(C)C#N)c2)cc1Nc1ccc2ncn(C)c(=O)c2c1` came in with an IC50 of over 10000 nM.

For the compound `N#Cc1c(Oc2ccc(F)c(NC(=O)Cc3cccc(C(F)(F)F)c3)c2)ccc2nc(NC(=O)C3CC3)sc12`, the IC50 was over 10000 nM at Pirin, 2 nM in experiment [1] and 8 nM in experiment [2].

Take `c1cnc2ncn(-c3cc(Nc4ccc(OCCN5CCCCC5)cn4)ncn3)c2c1`: the figures for the IC50 in experiment [3] and in experiment [4] were 490 nM and 30 nM, respectively.

Take `CC(C)(C)N1CCN(Cc2ccc3cc(C(=O)Nc4cc(NC(=O)c5ccc6c(c5)OCCO6)ccc4Cl)ccc3n2)CC1`: the IC50 on Pirin was 33 nM; in experiment [2], over 10000 nM.

Turning to `OCCn1cc(-c2ccc3c(c2)CC/C3=N\O)c(-c2ccncc2)n1`, the IC50 on Pirin is over 10000 nM.

As to `CC(C)(C)c1nc(-c2cccc(NS(=O)(=O)c3c(F)cccc3F)c2F)c(-c2ccnc(N)n2)s1` [DABRAFENIB], the IC50 on Pirin was over 10000 nM.

On Pirin, `CCCS(=O)(=O)Nc1ccc(F)c(C(=O)c2c[nH]c3ncc(Cl)cc23)c1F` [PLX-4720] registered an IC50 of 670 nM.

`Cn1c(Nc2ccc(C(F)(F)F)cc2)nc2cc(Oc3ccnc(-c4ncc(C(F)(F)F)[nH]4)c3)ccc21` [RAF-265]: at Pirin, the IC50 was over 10000 nM.
